System: rat sensory neurones
Experiment: Neurite growth of sensory neurones in primary culture (anti β-Tubulin, In Cell Analyzer)
Type: cell-based
Protocol: Rat sensory neurones were prepared according to the method described by Hall et al. 1997 (Hall A K, Ai X, Hickman G E, MacPhedran S E, Nduaguba C O, Robertson C P. The generation of neuronal heterogeneity in a rat sensory ganglion. J. Neurosci. 1997 Apr. 15; 17(8):2775-84). Briefly, female rats (15 days gestation) were killed by cervical dislocation (Rats Wistar; Janvier, Le Genest-St-Isle, France) and the foetuses removed from the uterus. Their spinal cords with the dorsal root ganglia (DRG) were removed and placed in ice-cold medium of Leibovitz (L15, Fisher 11415-049) containing Penicillin 50 Ul/ml-Streptomycin 50 pg/ml (PS, 1%) and bovine serum albuminutes (BSA 1%, Sigma A6003). The DRG were recovered and dissociated by trypsinisation for 20 minutes at 37° C. (trypsin EDTA 10×, 10%, Fisher 15400054) diluted in PBS without calcium and magnesium (Fisher 2007-03). The reaction was stopped by addition of Dulbecco modified Eagle medium (DMEM, Fisher 21969-035) containing DNase I grade II (0.1 mg/ml Roche diagnostic 104159) and foetal bovine serum (FBS 10%, Fisher 10270-098). The cell suspension was triturated with a 10 ml pipette and centrifuged at 350×g for 10 minutes at room temperature. The pellet of dissociated cells was then resuspended in defined culture medium.
Viable cells were counted in a Neubauer cytometer using the trypan blue exclusion test (Sigma) and seeded at a density of 25 000 cells/well in 96 well-plates (Nunc). Wells were pre-coated with poly-L-lysine (10 μg/ml, Sigma P2636) in ultra pure sterile water (Merck Eurolab 60759.01).
Cells were allowed to adhere for 2 hours and maintained in a humidified incubator at 37° C. in 5% CO2/95% air atmosphere.
The culture medium was changed into a defined culture medium after a 12 hours incubation period following the conditions described below:
NGF 50 ng/ml and 10 ng/ml (in 0.1% DMSO)
After 6 hours, 12 hours and 24 hours of incubation with 7β-OH EPIA, cells were fixed for 5 minutes in an ethanol/acetic acid solution (95%/5%) at −20° C. and rinsed 3 times in PBS.
Motor neurones and sensory neurones were labelled by monoclonal anti β-Tubulin antibody (Sigma T8660) diluted at 1:400 in incubation solution (PBS with 5% of FCS and 0.1% of saponin, Sigma S-7900). This antibody specifically labels neurone cell bodies and neurites.
After 2 hours of incubation, the cells were washed in PBS and incubated with Alexa Fluor 488 goat anti mouse IgG (Molecular Probes A11001) diluted at 1:300 in incubation solution to reveal the 8-Tubulin III antibodies.
Analysis of the total length of neurones labelled with anti β-Tubulin antibodies (neurones) were carried out using In Cell Analyzer 1000 3.2.Workstation software.
The results were expressed in percentage compared to the vehicle. Comparison of groups was carried out using the unpaired T test.

CC12CCC3C(C1CCC2=O)[C@@H](O)C[C@H]1C[C@@H](O)CCC31C (stereo partly drawn) [Compound 7β-OH-EPIA, 7β-hydroxy-EPIAndrosterone]
Neurites length per field, % Vehicle (10^−4 M, 6 hours): 101%
Neurites length per field, Mean (10^−4 M, 6 hours): 103.2 μm
Neurites length per field, % Vehicle (10^−4 M, 12 hours): 97%
Neurites length per field, Mean (10^−4 M, 12 hours): 290.3 μm
Neurites length per field, % Vehicle (10^−4 M, 24 hours): 104%
Neurites length per field, Mean (10^−4 M, 24 hours): 228.6 μm
Neurites length per field, % Vehicle (10^−5 M, 6 hours): 112%
Neurites length per field, Mean (10^−5 M, 6 hours): 114.8 μm
Neurites length per field, % Vehicle (10^−5 M, 12 hours): 108%
Neurites length per field, Mean (10^−5 M, 12 hours): 321.0 μm
Neurites length per field, % Vehicle (10^−5 M, 24 hours): 111%
Neurites length per field, Mean (10^−5 M, 24 hours): 244.8 μm
Neurites length per field, % Vehicle (10^−6 M, 6 hours): 96%
Neurites length per field, Mean (10^−6 M, 6 hours): 97.7 μm
Neurites length per field, % Vehicle (10^−6 M, 12 hours): 96%
Neurites length per field, Mean (10^−6 M, 12 hours): 287.0 μm
Neurites length per field, % Vehicle (10^−6 M, 24 hours): 86%
Neurites length per field, Mean (10^−6 M, 24 hours): 189.9 μm
Neurites length per field, % Vehicle (10^−7 M, 6 hours): 149%
Neurites length per field, Mean (10^−7 M, 6 hours): 151.8 μm
Neurites length per field, % Vehicle (10^−7 M, 6 hours, listed as 7β-OH EPIA): 171%
Neurites length per field, % Vehicle (10^−7 M, 12 hours): 134%
Neurites length per field, Mean (10^−7 M, 12 hours): 398.4 μm
Neurites length per field, % Vehicle (10^−7 M, 24 hours): 173%
Neurites length per field, Mean (10^−7 M, 24 hours): 380.8 μm
Neurites length per field, % Vehicle (10^−8 M, 6 hours): 176%
Neurites length per field, Mean (10^−8 M, 6 hours): 179.3 μm
Neurites length per field, % Vehicle (10^−8 M, 12 hours): 123%
Neurites length per field, Mean (10^−8 M, 12 hours): 368.3 μm
Neurites length per field, % Vehicle (10^−8 M, 24 hours): 174%
Neurites length per field, Mean (10^−8 M, 24 hours): 384.3 μm
Neurites length per field, % Vehicle (10^−9 M, 6 hours): 171%
Neurites length per field, Mean (10^−9 M, 6 hours): 174.2 μm
Neurites length per field, % Vehicle (10^−9 M, 6 hours, listed as 7β-OH EPIA): 149%
Neurites length per field, % Vehicle (10^−9 M, 12 hours): 145%
Neurites length per field, Mean (10^−9 M, 12 hours): 431.8 μm
Neurites length per field, % Vehicle (10^−9 M, 24 hours): 147%
Neurites length per field, Mean (10^−9 M, 24 hours): 324.9 μm

— US20130023504A1, “Modulation of Prostaglandin/Cyclooxygenase Metabolic Pathways” (HUNTER-FLEMING LIMITED, priority 2006, published 2013)
